Values after ≈ are worked out from the molar mass of the structure shown.
Assays:
S. Enteritidis [1] = assay: Antimicrobial effect of seaweed pure compounds, broth inoculation method (log CFU/mL); format: cell-based, Salmonella Enteritidis; settings: 15 μg/mL of compound, no antibiotic; for colony count of S. Enteritidis, log CFU: control log CFU 6.5
Experimental: These pure compounds were tested in vitro against S. Enteritidis using the broth inoculation method of Example 2, but without the tetracycline or streptomycin. Fifteen (15) μg/mL of each compound was added to TSA broth and inoculated with S. Enteritidis.

S. Enteritidis [2] = assay: Minimum inhibitory concentrations (MIC25, MIC50) of antibiotics, broth inoculation method; format: cell-based; settings: Salmonella enterica, 37° C., 16-18 h, inoculum 1×10^8 cells/mL
Experimental: Nalidixic acid resistant strain of S. Enteritidis was provided by Laboratory for Foodborne Zoonoses, Public Health Agency of Canada, Guelph, Ontario. Half strength tryptic soy agar (TSA) medium (Difco) supplemented with nalidixic acid at a concentration of 32 μg/mL was used for bacterial growth. Tetracycline and Streptomycin were obtained from Sigma Aldrich (Oakville, Ontario, Canada). Stock solutions of antibiotics and seaweed extract were prepared and stored at −20° C. Other chemicals and media were purchased from Difco Laboratories, Baltimore, Md., USA. Red seaweeds (Chondrus crispus, and Sarcodiotheca gaudichaudii) were provided by Acadian Seaplants Limited, Nova Scotia, Canada.
The susceptibility of S. Enteritidis to tetracycline and streptomycin was tested by broth inoculation method. The testing of MICs (MIC25 and MIC50) was performed in triplicates with an inoculum of 1×10^8 cells/mL. […] MATLAB R2010a (curve fitting tool) was used to determine minimum inhibitory concentrations (MIC) of the antibiotics.

S. Enteritidis [3] = assay: Combined effect of seaweed extract and antibiotics, liquid culture inhibition test (CFU); format: cell-based, Salmonella Enteritidis
Experimental: Seaweed water extracts (SWE) were prepared by grinding sun dried seaweeds to fine powder using a coffee grinder, and adding 5 grams of algal powder to 20 mL distilled water (DW). The resulting slurry was incubated at 50° C. for 3 hours under shaking condition at 140 rpm using an orbital shaker (New Brunswick Scientific, Enfield, Conn., US). The slurry was then centrifuged at 10,000 g for 15 min. The supernatant was recovered and the residual pellet was re-extracted three times using the same procedure. The resulting supernatants were pooled and freeze dried (Thermo Fisher Scientific Inc., US). Dilutions of SWE were prepared by dissolving 0.2, 0.4, 0.8, 1 and 2 g of soluble freeze dried extract in 1 mL distilled water. These dilutions were used as working concentration in all the experiments. The combined effect of the C. crispus (CC) extract or the S. gaudichaudii (SG) extract, with tetracycline or streptomycin (at MIC25 or MIC50), was evaluated in vitro by liquid culture inhibition test. To 10 mL of tryptic soy broth, seaweed extract (SWE) and 100 μL Salmonella Enteritidis (OD600=0.1, 1×10^8 cells/mL) were added. The final concentrations of seaweed extracts in 10 mL with tryptic soy broth were 200, 400, or 800 μg/mL. Culture tubes were incubated at 37° C. for 24 hrs. The growth of S. Enteritidis was determined by plating the serially diluted culture on TSA plates to enumerate the colony forming units (CFU).

Compound: NC(=O)NCCC[C@H](N)C(=O)O [citrulline]
- CFU of S. Enteritidis compared to control (S. Enteritidis [1]): no statistically significant difference

Compound: NCCS(=O)(=O)O [taurine]
- CFU of S. Enteritidis compared to control (S. Enteritidis [1]): no statistically significant difference

Compound: OCC(CO)O[C@H]1O[C@H](CO)[C@H](O)[C@H](O)[C@H]1O [Floridoside, 2-O-α-D-galactopyranosylglycerol]
- colony count of S. Enteritidis, log CFU (S. Enteritidis [1]): 6.21 log CFU

Compound: CN(C)[C@@H]1C(O)=C(C(N)=O)C(=O)[C@@]2(O)C(O)=C3C(=O)c4c(O)cccc4[C@@](C)(O)[C@H]3C[C@@H]12 [tetracycline]
- MIC (S. Enteritidis [2]): ≤ 7.9 µg/mL
- MIC50 (S. Enteritidis [2]): ≤ 4 µg/mL
- growth of S. Enteritidis, log CFU (S. Enteritidis [3]; MIC controls (tetracycline without SG extract)): 5.5 log CFU
- growth of S. Enteritidis, log CFU (S. Enteritidis [3]; tetracycline alone at MIC25, 24 hrs): 6.1 log CFU
- growth of S. Enteritidis, log CFU (S. Enteritidis [3]; tetracycline alone at MIC50, 24 hrs): 5.5 log CFU

Compound: O=S(=O)(O)CCO [isethionic acid, Isethionic acid]
- colony count of S. Enteritidis, log CFU (S. Enteritidis [1]): 6.33 log CFU

Compound: [H]/N=C(/N)N[C@H]1[C@H](O)[C@@H](O)[C@H](O[C@@H]2O[C@@H](C)[C@](O)(C=O)[C@H]2O[C@@H]2O[C@@H](CO)[C@H](O)[C@@H](O)[C@@H]2NC)[C@@H](N/C(N)=N\[H])[C@@H]1O [Streptomycin]
- MIC (S. Enteritidis [2]): 1 µg/mL (≈ 1.72 µM)
- MIC50 (S. Enteritidis [2]): 1.63 µg/mL (≈ 2.8 µM)
